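Grown in 96-well plates, cells were treated for 48 hours with each compound at five concentrations. Insufficient inhibition: endpoint recorded as highest concentration tested. GI50 = concentration required for 50% inhibition of growth.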 The source made the active and inactive calls. Cut-off read from the data, not from the text of the source: active = GI50 up to about 1.1 µM and inactive = higher.
How the values were obtained:
Assay in all cases: growth of human tumour cells (NCI), 48 h
[1] = tested on: 786-0
[2] = tested on: A498
[3] = tested on: A549
[4] = tested on: ACHN
[5] = tested on: BT-549
[6] = tested on: CCRF-CEM
[7] = tested on: COLO 205
[8] = tested on: DU-145
[9] = tested on: EKVX
[10] = tested on: HCC 2998
[11] = tested on: HCT-116
[12] = tested on: HCT-15
[13] = tested on: HL-60
[14] = tested on: HOP-62
[15] = tested on: HOP-92
[16] = tested on: HT-29
[17] = tested on: Hs-578T
[18] = tested on: IGROV-1
[19] = tested on: K562
[20] = tested on: KM12
[21] = tested on: LOX IMVI
[22] = tested on: M14
[23] = tested on: MCF7
[24] = tested on: MDA-MB-231
[25] = tested on: MDA-MB-435
[26] = tested on: MDA-N
[27] = tested on: MOLT-4
[28] = tested on: Malme-3M
[29] = tested on: NCI-H226
[30] = tested on: NCI-H23
[31] = tested on: NCI-H460
[32] = tested on: NCI-H522
[33] = tested on: NCI/ADR-RES
[34] = tested on: OVCAR-3
[35] = tested on: OVCAR-4
[36] = tested on: OVCAR-5
[37] = tested on: OVCAR-8
[38] = tested on: PC-3
[39] = tested on: RPMI-8226
[40] = tested on: RXF 393
[41] = tested on: SF-268
[42] = tested on: SF-295
[43] = tested on: SF-539
[44] = tested on: SK-MEL-28
[45] = tested on: SK-MEL-2
[46] = tested on: SK-MEL-5
[47] = tested on: SK-OV-3
[48] = tested on: SN12C
[49] = tested on: SNB-19
[50] = tested on: SNB-75
[51] = tested on: SR
[52] = tested on: SW-620
[53] = tested on: T47D
[54] = tested on: TK-10
[55] = tested on: U-251
[56] = tested on: UACC-257
[57] = tested on: UACC-62
[58] = tested on: UO-31
[59] = tested on: CAKI-1

## C[C@]12CC[C@H]3[C@@H](CCC4=CC(=O)CC[C@@H]43)[C@@H]1CC[C@]2(O)C(N)=O
[1]
  GI50: > 100 µM (inactive)
[2]
  GI50: > 100 µM (inactive)
[3]
  GI50: > 100 µM (inactive)
[4]
  GI50: > 100 µM (inactive)
[5]
  GI50: > 100 µM (inactive)
[6]
  GI50: > 100 µM (inactive)
[7]
  GI50: > 100 µM (inactive)
[8]
  GI50: > 100 µM (inactive)
[9]
  GI50: > 100 µM (inactive)
[10]
  GI50: > 100 µM (inactive)
[11]
  GI50: > 100 µM (inactive)
[12]
  GI50: > 100 µM
[13]
  GI50: > 100 µM (inactive)
[14]
  GI50: > 100 µM (inactive)
[15]
  GI50: > 100 µM (inactive)
[16]
  GI50: > 100 µM (inactive)
[17]
  GI50: > 100 µM (inactive)
[18]
  GI50: > 100 µM (inactive)
[19]
  GI50: > 100 µM (inactive)
[20]
  GI50: > 100 µM (inactive)
[21]
  GI50: > 100 µM (inactive)
[22]
  GI50: > 100 µM (inactive)
[23]
  GI50: > 100 µM (inactive)
[24]
  GI50: > 100 µM (inactive)
[25]
  GI50: > 100 µM (inactive)
[26]
  GI50: > 100 µM (inactive)
[27]
  GI50: > 100 µM (inactive)
[28]
  GI50: > 100 µM (inactive)
[29]
  GI50: > 100 µM (inactive)
[30]
  GI50: > 100 µM (inactive)
[31]
  GI50: > 100 µM (inactive)
[32]
  GI50: > 100 µM (inactive)
[33]
  GI50: > 100 µM (inactive)
[34]
  GI50: > 100 µM (inactive)
[35]
  GI50: > 100 µM (inactive)
[36]
  GI50: > 100 µM (inactive)
[37]
  GI50: > 100 µM (inactive)
[38]
  GI50: > 100 µM (inactive)
[39]
  GI50: > 100 µM (inactive)
[40]
  GI50: > 100 µM (inactive)
[41]
  GI50: > 100 µM (inactive)
[42]
  GI50: > 100 µM (inactive)
[43]
  GI50: > 100 µM (inactive)
[44]
  GI50: > 100 µM (inactive)
[45]
  GI50: > 100 µM (inactive)
[46]
  GI50: > 100 µM (inactive)
[47]
  GI50: > 100 µM (inactive)
[48]
  GI50: > 100 µM (inactive)
[49]
  GI50: > 100 µM (inactive)
[50]
  GI50: > 100 µM (inactive)
[51]
  GI50: > 100 µM (inactive)
[52]
  GI50: > 100 µM (inactive)
[53]
  GI50: > 100 µM (inactive)
[54]
  GI50: > 100 µM (inactive)
[55]
  GI50: > 100 µM (inactive)
[56]
  GI50: > 100 µM (inactive)
[57]
  GI50: > 100 µM (inactive)
[58]
  GI50: > 100 µM (inactive)

## c1ccc(-c2c(-c3cccs3)[nH]c(-c3cccs3)c2-c2ccccn2)nc1
[1]
  GI50: 22.6 µM (inactive)
[2]
  GI50: 27.5 µM (inactive)
[3]
  GI50: 18.1 µM (inactive)
[4]
  GI50: 30.5 µM (inactive)
[5]
  GI50: 22.2 µM (inactive)
[59]
  GI50: 37.4 µM (inactive)
[6]
  GI50: 8.24 µM (inactive)
[7]
  GI50: 15 µM (inactive)
[8]
  GI50: 0.27 µM (active)
[9]
  GI50: 22.9 µM (inactive)
[10]
  GI50: 20.2 µM (inactive)
[11]
  GI50: 0.127 µM (active)
[12]
  GI50: 15.1 µM
[13]
  GI50: 26.5 µM (inactive)
[15]
  GI50: 25.8 µM (inactive)
[16]
  GI50: 14.2 µM (inactive)
[17]
  GI50: 33.4 µM (inactive)
[18]
  GI50: 22.5 µM (inactive)
[19]
  GI50: 11.7 µM (inactive)
[20]
  GI50: 23.1 µM (inactive)
[21]
  GI50: 12.4 µM (inactive)
[22]
  GI50: 20.2 µM (inactive)
[23]
  GI50: > 10 µM (inactive)
[24]
  GI50: 20.3 µM (inactive)
[25]
  GI50: 15.7 µM (inactive)
[26]
  GI50: 0.199 µM (active)
[27]
  GI50: 11.7 µM (inactive)
[28]
  GI50: 25.5 µM (inactive)
[29]
  GI50: 23 µM (inactive)
[30]
  GI50: 26.2 µM (inactive)
[31]
  GI50: 21.3 µM (inactive)
[33]
  GI50: 17.2 µM (inactive)
[34]
  GI50: 24 µM (inactive)
[36]
  GI50: 30.5 µM (inactive)
[37]
  GI50: 26.4 µM (inactive)
[38]
  GI50: 10.6 µM (inactive)
[39]
  GI50: 20 µM (inactive)
[40]
  GI50: 20.5 µM (inactive)
[41]
  GI50: 19.7 µM (inactive)
[42]
  GI50: 20.2 µM (inactive)
[43]
  GI50: 20.4 µM (inactive)
[46]
  GI50: 13.7 µM (inactive)
[47]
  GI50: 21.9 µM (inactive)
[48]
  GI50: 21.1 µM (inactive)
[49]
  GI50: 33.5 µM (inactive)
[50]
  GI50: 17.6 µM (inactive)
[51]
  GI50: 26.2 µM (inactive)
[52]
  GI50: 13 µM (inactive)
[53]
  GI50: 18.2 µM (inactive)
[54]
  GI50: 40.2 µM (inactive)
[55]
  GI50: 20.2 µM (inactive)
[56]
  GI50: 22 µM (inactive)
[57]
  GI50: 18 µM (inactive)
[58]
  GI50: 19.2 µM (inactive)

## CNC1C(OC2C(OC3C(O)C(O)C(O)C(O)C3O)OC(C)C2(O)CO)OC(CO)C(O)C1O.N=C(N)N.NC(=O)O (stereo not given)
[1]
  GI50: > 100 µM (inactive)
[2]
  GI50: > 100 µM (inactive)
[3]
  GI50: > 100 µM (inactive)
[4]
  GI50: > 100 µM (inactive)
[5]
  GI50: > 100 µM (inactive)
[6]
  GI50: > 100 µM (inactive)
[7]
  GI50: > 100 µM (inactive)
[8]
  GI50: > 100 µM (inactive)
[9]
  GI50: > 100 µM (inactive)
[10]
  GI50: > 100 µM (inactive)
[11]
  GI50: > 100 µM (inactive)
[12]
  GI50: > 100 µM
[13]
  GI50: > 100 µM (inactive)
[14]
  GI50: > 100 µM (inactive)
[15]
  GI50: > 100 µM (inactive)
[16]
  GI50: > 100 µM (inactive)
[17]
  GI50: > 100 µM (inactive)
[18]
  GI50: > 100 µM (inactive)
[19]
  GI50: > 100 µM (inactive)
[20]
  GI50: > 100 µM (inactive)
[21]
  GI50: > 100 µM (inactive)
[22]
  GI50: > 100 µM (inactive)
[23]
  GI50: > 100 µM (inactive)
[24]
  GI50: > 100 µM (inactive)
[25]
  GI50: > 100 µM (inactive)
[26]
  GI50: > 100 µM (inactive)
[27]
  GI50: > 100 µM (inactive)
[28]
  GI50: > 100 µM (inactive)
[29]
  GI50: > 100 µM (inactive)
[30]
  GI50: > 100 µM (inactive)
[31]
  GI50: > 100 µM (inactive)
[32]
  GI50: > 100 µM (inactive)
[33]
  GI50: > 100 µM (inactive)
[34]
  GI50: > 100 µM (inactive)
[35]
  GI50: > 100 µM (inactive)
[36]
  GI50: > 100 µM (inactive)
[37]
  GI50: > 100 µM (inactive)
[38]
  GI50: > 100 µM (inactive)
[39]
  GI50: > 100 µM (inactive)
[40]
  GI50: > 100 µM (inactive)
[41]
  GI50: > 100 µM (inactive)
[42]
  GI50: > 100 µM (inactive)
[43]
  GI50: > 100 µM (inactive)
[44]
  GI50: > 100 µM (inactive)
[45]
  GI50: > 100 µM (inactive)
[46]
  GI50: > 100 µM (inactive)
[47]
  GI50: > 100 µM (inactive)
[48]
  GI50: > 100 µM (inactive)
[49]
  GI50: > 100 µM (inactive)
[50]
  GI50: > 100 µM (inactive)
[51]
  GI50: > 100 µM (inactive)
[52]
  GI50: > 100 µM (inactive)
[53]
  GI50: > 100 µM (inactive)
[54]
  GI50: > 100 µM (inactive)
[55]
  GI50: > 100 µM (inactive)
[56]
  GI50: > 100 µM (inactive)
[57]
  GI50: > 100 µM (inactive)
[58]
  GI50: > 100 µM (inactive)

Source: ChEMBL document CHEMBL1201862, “PubChem BioAssay data set” (2004)
